In ChEMBL document CHEMBL1146615, “Heterocyclic thrombin inhibitors. Part 2: quinoxalinone derivatives as novel, potent antithrombotic agents” (Bioorg Med Chem Lett, 2003):

Assays:
[1] = target: Coagulation factor X (Homo sapiens, UniProt P00742); assay: Inhibition of coagulation factor X
[2] = organism: Homo sapiens; assay: Antithrombotic activity by measuring the activated partial thromboplastin time(aPPT) in human plasma; format: functional
[3] = target: Prothrombin (Homo sapiens, UniProt P00734); assay: Inhibition of human thrombin
[4] = target: Plasminogen (Homo sapiens, UniProt P00747); assay: Inhibition of plasmin
[5] = Inhibition of bovine trypsin; parameters: species or system Bos taurus
[6] = Partition coefficient (logP); format: physicochemical; conditions: octanol/water

Sequence of Coagulation factor X (P00742 41-179 limits assumed): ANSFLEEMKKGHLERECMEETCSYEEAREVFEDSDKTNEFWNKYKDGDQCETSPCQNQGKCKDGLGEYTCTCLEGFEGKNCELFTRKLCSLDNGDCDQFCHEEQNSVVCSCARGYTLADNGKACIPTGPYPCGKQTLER
Sequence of Coagulation factor X (P00742 235-488 limits assumed): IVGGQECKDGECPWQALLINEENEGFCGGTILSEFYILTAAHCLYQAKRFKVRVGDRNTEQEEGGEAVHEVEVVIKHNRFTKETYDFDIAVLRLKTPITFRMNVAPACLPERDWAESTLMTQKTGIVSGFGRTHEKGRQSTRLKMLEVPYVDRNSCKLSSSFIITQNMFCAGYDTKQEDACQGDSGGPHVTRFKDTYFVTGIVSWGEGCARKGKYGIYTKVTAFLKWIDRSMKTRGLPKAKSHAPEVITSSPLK
Sequence of Plasminogen (P00747 97-580 limits assumed): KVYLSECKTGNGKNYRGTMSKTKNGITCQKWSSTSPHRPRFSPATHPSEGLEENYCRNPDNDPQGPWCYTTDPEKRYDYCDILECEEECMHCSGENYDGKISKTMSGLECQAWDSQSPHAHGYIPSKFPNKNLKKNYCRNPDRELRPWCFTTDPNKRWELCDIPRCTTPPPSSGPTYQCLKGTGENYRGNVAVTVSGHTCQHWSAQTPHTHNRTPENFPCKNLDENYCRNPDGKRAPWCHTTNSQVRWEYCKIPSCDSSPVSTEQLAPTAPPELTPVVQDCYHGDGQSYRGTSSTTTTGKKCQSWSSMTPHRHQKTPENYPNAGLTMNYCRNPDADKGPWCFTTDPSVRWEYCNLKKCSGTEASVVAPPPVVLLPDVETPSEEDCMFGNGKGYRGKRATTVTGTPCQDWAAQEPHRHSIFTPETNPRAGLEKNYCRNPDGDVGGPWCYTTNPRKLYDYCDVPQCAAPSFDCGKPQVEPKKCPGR
Sequence of Plasminogen (P00747 581-810 limits assumed): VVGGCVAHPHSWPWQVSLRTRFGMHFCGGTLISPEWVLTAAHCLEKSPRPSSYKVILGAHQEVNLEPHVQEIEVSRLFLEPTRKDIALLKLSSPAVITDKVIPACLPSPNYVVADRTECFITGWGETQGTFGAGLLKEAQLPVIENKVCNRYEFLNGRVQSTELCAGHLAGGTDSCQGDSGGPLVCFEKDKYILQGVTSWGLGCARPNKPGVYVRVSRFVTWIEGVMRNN

Row | SMILES | IC50 [1] [nM] | ED200 [2] [µM] | IC50 [3] [nM] | IC50 [4] [nM] | IC50 [5] [nM] | logP [6]
1 | CC1CCCN(C(=O)C(C)(C)c2ccc3c(c2)nc(Cc2ccc(C(=N)N)cc2)c(=O)n3C)C1 (centres undefined) | 590 | 0.12 | 12 |  |  | 
2 | Cn1c(=O)c(Cc2ccc(C(=N)N)cc2)nc2cc(C(C)(C)C(=O)N3CCCCC3)ccc21 | 400 | 0.25 | 8 | 60000 | 2200 | 
3 | Cn1c(=O)c(Cc2ccc(C(=N)N)cc2)nc2cc(C3(C(=O)N4CCCC4)CC3)ccc21 |  | 0.095 |  | 66000 |  | 1.5
4 | CCOC(=O)C1(c2ccc3c(C)cc(Oc4ccc(C(=N)N)cc4)nc3c2)CCCC1 |  |  | 30 |  | 560 | 
5 | Cn1c(=O)c(Cc2ccc(C(=N)N)cc2)nc2cc(C3(C(=O)O)CC3)ccc21 | > 100000 | >10 |  |  |  | 
6 | Cn1c(=O)c(Cc2ccc(C(=N)N)cc2)nc2cc(C3(C(=O)N4CCCC4CO)CC3)ccc21 (centres undefined) | 1400 | 0.21 | 13 | 72000 | 850 | 
7 | Cn1c(=O)c(Cc2ccc(C(=N)N)cc2)nc2cc(C3(N(C(=O)CC(=O)O)C4CCCC4)CC3)ccc21 | 3000 | 0.45 | 15 | 36000 | 550 | 
8 | Cn1c(=O)c(Cc2ccc(C(=N)N)cc2)nc2cc(C(C)(C)C(=O)N3CCCC3)ccc21 | 500 | 0.16 | 5 | 53000 | 320 | 1
9 | Cn1c(=O)c(Cc2ccc(C(=N)N)cc2)nc2cc(C(C)(C)C(=O)N3CCNCC3)ccc21 | 31000 | 0.71 | 68 |  |  | 
10 | CCOC(=O)C(C)(C)c1ccc2c(C)cc(Oc3ccc(C(=N)N)cc3)nc2c1 | 12100 | 0.94 |  |  | 2400 | 1.7
11 | CN(C)C(=O)C(C)(C)c1ccc2c(c1)nc(Cc1ccc(C(=N)N)cc1)c(=O)n2C | 9200 | 0.41 | 16 | > 100000 | 9500 | 
12 | CCOC(=O)C1(c2ccc3c(c2)nc(Cc2ccc(C(=N)N)cc2)c(=O)n3C)CC1 | 46000 | 0.67 | 27 | 69000 | 580 | 
13 | Cn1c(=O)c(Cc2ccc(C(=N)N)cc2)nc2cc(C3(C(=O)N4CCCC4C(=O)NCC(=O)O)CC3)ccc21 (centres undefined) | > 100000 | 0.91 | 190 | 68000 | 2400 | 
14 | CCOC(=O)C(C)(C)c1ccc2c(c1)nc(Cc1ccc(C(=N)N)cc1)c(=O)n2C | 10600 | 0.43 | 10 | 75000 | 410 | 0.5
